# Key:
# A. flavus - ATCC 204304 = test: Disk diffusion assay, minimum effective concentration (MEC) and zone of inhibition (ZOI); type: cell-based, Aspergillus flavus
# Aspergillus species = test: Broth microdilution MIC determination, filamentous fungi
# Protocol: (§1) Test compound preparation: The test article was prepared as 100× stock solutions in DMSO, with concentrations ranging from 3.2 mg/ml to 0.0625 mg/ml (a two-fold dilution series over 10 points). The first dilution (3.2 mg/ml) was prepared by resuspending 0.5 mg of each test article in 156.25 μl of DMSO.
# (§2) Inoculum preparation: For fungal strains, the inoculum was prepared as follows. From an overnight culture in Yeast Media broth, cell density was adjusted in 0.85% saline to 0.5 McFarland. This procedure yielded a stock suspension of about 5×10^6 cells/ml. Following thorough vortexing, a working suspension was prepared by diluting the stock 1:50 in RPMI 1640, and then further diluting it 1:20 with RPMI 1640 to obtain the 2× test inoculum (about 5×10^3 cells/ml). For filamentous fungi, the inoculum was prepared as follows. From a spore suspension kept at 4° C., an appropriate dilution in 0.85% saline was made to obtain a final optical density 600 between 0.09-0.11. A working suspension was then prepared by diluting the spore suspension 50 times in RPMI to obtain the 2× test inoculum (about 1×10^5 CFU/ml).
# (§3) MIC Determination: The 100× test article solutions were diluted 50 times in RPMI 1640, MH or BHI media and dispensed in a 96 well plate, one concentration per column, 10 columns in total. The 11th column contained RPMI 1640 with 1% DMSO with cells, the 12th column contained 100 μl of RPMI 1640 alone.
# (§4) 50 μl of the final cell dilution (yeast, filamentous fungi or bacteria) of each indicator strain was added to each corresponding well of the microplate containing 50 μl of diluted drug or media alone. Assay plates were incubated at 35° C. for up to 72 hrs. MIC readings were determined at 24 and 48 hrs for the Candida and Aspergillus species, and at 48 and 72 hrs for Cryptococcus neoformans. MIC readout for each indicator was determined as the lowest concentration of test compound resulting in total absence of growth.
# Candida species = test: Broth microdilution MIC determination (NCCLS M27-A adapted), yeasts
# Protocol: as §1, §2, §3, §4
# [1] = system: A. fumigatus - LSPQ 204305; test: Disk diffusion assay, minimum effective concentration (MEC) and zone of inhibition (ZOI); type: cell-based, Aspergillus fumigatus
# [2] = system: 60 different human tumor cell lines; test: NCI in vitro antiproliferative screen (SRB), GI50; type: cell-based
# Protocol: In vitro antipoliferative study of Compound 2a was performed by the National Cancer Institute (National Institutes of Health, Bethesda, Md., USA) against a panel of cancer cell lines in order to determine the concentrations needed to obtain a 50% inhibition of cell proliferation (IC50). The operation of this unique screen utilizes 60 different human tumor cell lines, representing leukemia, melanoma, and cancers of the lung, colon, brain, ovary, breast prostate and kidney. Compound 2(a) was provided as a lyophilized powder with an estimated purity of 90+%. The compound was stored at −20° C. until day of use.
# The human tumor cell lines of the cancer-screening panel were grown in RPMI 1640 medium containing 5% fetal bovine serum and 2 mM L-glutamine. For a typical screening experiment, cells were inoculated into 96 well microtiter plates in 100 μl at plating densities ranging from 5000 to 40,000 cells/well depending on the doubling time of individual cell lines (Table 8). […]
# Following drug addition, the plates were incubated for an additional 48 hours at 37° C., 5% CO2, 95% air, and 100% relative humidity. […] Bound stain was subsequently solubilized with 10 mM trizma base, and the absorbance was read on an automated plate reader at a wavelength of 515 nm. […]
# The growth inhibitory power of compound 2(a) was measured by NCl utilizing the GI50 value, rather than the classical IC50 value. […]
# C. albicans SC5314 = test: Mouse model of disseminated candidiasis, survival; type: in vivo; conditions: CD-1 mice infected i.v. with C. albicans SC5314; 1 or 3 mg/kg i.p. once daily for 4 days
# Protocol: Compound 2(a) was provided as a dry powder with an estimated purity of 95+%. Fungizone (amphotericin B desoxycholate, to be used as a comparitor), was also provided as a dry powder with an estimated purity of 95+%. The compound 2(a) and Fungizone were stored as dry powders at −80° C. until the day of administration.
# Female mice (species Mus musculus, strain CD-1, Charles River) with body weight range of 22-24 g were used in the study. […] All animal experiments were performed at the Step-Justine Hospital (Montreal, Quebec) according to ethical guidelines of animal experimentation of the ethical committee of the hospital. During the study, dead or apparently sick animals were promptly removed and sick mice were euthanized upon removal from the cage.
# The animals were maintained in rooms under controlled conditions of temperature (23±2° C.), humidity (45±5%), photoperiodicity (12 hrs light/12 hrs dark) and air exchange. The animals were housed in polycarbonate cages (4/single cage) equipped to provide food and water. Sterile wood shavings were used for animal bedding and the bedding was replaced every other day. […]
# The treatment regimen was repeated once daily for a total of 4 days. […] Moribund animals were scored as non-survivors and euthanized by CO2 inhalation. […]
smiles,measurement,setting,value
"CC(C=CCCC=CC=CC=CC=CC(=O)NC1=C(O)CCC1=O)C(O)C(C)C(O)C=CC=CC=CC=CC=CCC(OC1OC(C)C(O)C(O)C1O)C(C)C(=O)CC(O)CC(O)CC(O)C=CCC(O)CC(O)CC(O)CC(O)C=CCC(O)CC(O)CCCN (stereo not shown) [Compound 2(a), 56-Amino-15,17,33,35,37,41,43,45,47,51,53-undecahydroxy-14,16,30-trimethyl-31-oxo-29-(3,4,5-trihydroxy-6-methyl-tetrahydro-pyran-2-yloxy)-hexapentaconta-2,4,6,8,12,18,20,22,24,26,38,48-dodecaenoic acid (2-hydroxy-5-oxo-cyclopent-1-enyl)-amide]",ZOI (zone of inhibition of fungal growth at the MEC),"A. flavus - ATCC 204304; Aspergillus flavus, at MEC, 24 hours of incubation",2.7 mm
same,antifungal activity against Aspergillus flavus,A. flavus - ATCC 204304; ZOI after 24 hours at 35° C.,active
same,MIC,"Aspergillus species; 24 h, Aspergillus flavus ATCC 204304, 24 hrs",4 µg/mL
same,MIC,"Aspergillus species; 24 h, Aspergillus fumigatus ATCC 204305, 24 hrs",16 µg/mL
same,MIC,"Aspergillus species; 48 h, Aspergillus flavus ATCC 204304, 48 hrs",8 µg/mL
same,MIC,"Aspergillus species; 48 h, Aspergillus fumigatus ATCC 204305, 48 hrs",16 µg/mL
same,MIC,"Candida species; 24 h, Candida albicans ATCC 10231, 24 hrs",4 µg/mL
same,MIC,"Candida species; 24 h, Candida glabrata LSPQ 0250, 24 hrs",4 µg/mL
same,MIC,"Candida species; 24 h, Candida krusei LSPQ 0309, 24 hrs",8 µg/mL
same,MIC,"Candida species; 24 h, Candida lusitaniae ATCC 200953, 24 hrs",4 µg/mL
same,MIC,"Candida species; 48 h, Candida albicans ATCC 10231, 48 hrs",4 µg/mL
same,MIC,"Candida species; 48 h, Candida glabrata LSPQ 0250, 48 hrs",8 µg/mL
same,MIC,"Candida species; 48 h, Candida krusei LSPQ 0309, 48 hrs",8 µg/mL
same,MIC,"Candida species; 48 h, Candida lusitaniae ATCC 200953, 48 hrs",4 µg/mL
same,ZOI (zone of inhibition of fungal growth at the MEC),"[1]; Aspergillus fumigatus, at MEC, 24 hours of incubation",2.7 mm
same,antifungal activity against Aspergillus fumigatus,[1]; ZOI after 24 hours at 35° C.,active
same,GI50 level,"[2]; SN12C/renal carcinoma, HOP92/non-small cell lung carcinoma, HCC2998/colon carcinoma",nanomolar or picomolar level
same,anticancer activity against human tumor cell lines,[2]; all cell lines assayed in the NCI screening panel,effective against all the human tumor cell lines
same,increase of median survival time of infected mice,C. albicans SC5314,4 fold

# — patent US7416868B2, “Polyene polyketides, processes for their production and their use as a pharmaceutical” (Thallion Pharmaceuticals, Inc., priority 2003, dated 2008)
